Assay results taken from US9957271B2, “Substituted bicyclic aza-heterocycles and analogues as sirtuin modulators” (GlaxoSmithKline, LLC, priority 2012, dated 2018).

Key:
[1] = biological target: T1, SIRT1 (Homo sapiens, UniProt Q96EB6); assay: TAMRA based mass spectrometry assay of SIRT1 activity; format: biochemical; settings: for Emax: read-out: TAMRA % Fold Act
T1 sequence (Q96EB6 1-747): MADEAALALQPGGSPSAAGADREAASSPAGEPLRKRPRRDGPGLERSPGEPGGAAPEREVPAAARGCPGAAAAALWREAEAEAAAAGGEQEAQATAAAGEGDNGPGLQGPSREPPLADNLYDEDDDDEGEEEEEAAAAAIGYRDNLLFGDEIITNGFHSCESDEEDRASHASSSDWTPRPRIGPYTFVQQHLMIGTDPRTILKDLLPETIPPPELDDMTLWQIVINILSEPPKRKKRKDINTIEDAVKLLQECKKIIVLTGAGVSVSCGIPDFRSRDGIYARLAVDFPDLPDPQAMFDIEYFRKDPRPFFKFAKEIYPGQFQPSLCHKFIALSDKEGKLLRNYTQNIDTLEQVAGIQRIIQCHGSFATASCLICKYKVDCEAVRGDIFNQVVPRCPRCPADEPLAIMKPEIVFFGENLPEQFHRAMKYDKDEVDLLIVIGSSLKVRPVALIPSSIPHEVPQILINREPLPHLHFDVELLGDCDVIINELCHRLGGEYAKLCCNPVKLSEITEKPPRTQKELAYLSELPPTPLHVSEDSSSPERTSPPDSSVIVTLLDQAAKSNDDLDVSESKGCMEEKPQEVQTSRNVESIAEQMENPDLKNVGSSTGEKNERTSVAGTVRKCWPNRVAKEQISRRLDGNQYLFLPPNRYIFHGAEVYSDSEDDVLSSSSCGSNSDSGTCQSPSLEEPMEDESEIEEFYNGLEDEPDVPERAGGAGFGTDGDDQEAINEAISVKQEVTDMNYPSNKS
Summary of the method: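 Recombinant N-terminal His-tagged human SIRT1 (10 nM, E. coli) incubated 25 min at 25 °C with 0.5 μM 5TMR-labelled p53-derived acetyl-peptide and 120 μM βNAD+ in Tris-acetate pH 8 buffer with DTT and 0.05% BSA, compound at varying concentrations. Stopped with formic acid; deacetylated peptide or OAADPR measured by mass spectrometry relative to DMSO controls.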

[2] = biological target: T1, SIRT1; assay: Trp mass spectrometry assay of SIRT1 activity; format: biochemical; settings: for Emax: read-out: Trp % Fold Act
Summary of the method: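 His-tagged SIRT1 expressed in E. coli BL21(DE3), 10 nM, incubated 25 min at 25° C. with 0.5 μM Ac-RHKK(Ac)W-NH2 peptide and 120 μM βNAD+ in 50 mM HEPES pH 7.5, […], 1 mM DTT, 0.05% BSA; formic acid stop. OAADPR or deacetylated peptide measured by mass spectrometry; EC1.5 and percent maximum activation versus DMSO control.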

[3] = TAMRA peptide substrate, concentration giving 150% activation of SIRT1
[4] = TAMRA peptide substrate, percent maximum fold activation
[5] = Trp peptide substrate, concentration giving 150% activation of SIRT1
[6] = Trp peptide substrate, percent maximum fold activation
[7] = concentration of test compound giving 150% activation of SIRT1, TAMRA peptide substrate
[8] = percent maximum fold activation of SIRT1, TAMRA peptide substrate
[9] = concentration of test compound giving 150% activation of SIRT1, Trp peptide substrate
[10] = percent maximum fold activation of SIRT1, Trp peptide substrate
[11] = TAMRA assay, concentration giving 150% activation of SIRT1
[12] = TAMRA assay, percent maximum fold activation
[13] = Trp assay, concentration giving 150% activation of SIRT1
[14] = Trp assay, percent maximum fold activation

| SMILES | TAMRA EC1.5 (μM) [1, 11] | Emax [1, 12] | Trp EC1.5 (μM) [2, 13] | Emax [2, 14] | other results |
| --- | --- | --- | --- | --- | --- |
| Cc1nc(C(=O)Nc2cnc3c(C)cc(-c4ccccc4C(F)(F)F)nn23)cs1 [Compound 412] |  |  |  |  | TAMRA EC1.5 [1, 3]: A (EC1.5<1 μM); Emax [1, 4]: ≥ 350%; Trp EC1.5 [2, 5]: A (EC1.5<1 μM); Emax [2, 6]: ≥ 350% |
| Cc1noc(C)c1-c1ccc2ncc(C(=O)Nc3cccc(N4CCOCC4)n3)n2n1 [Compound 53] |  |  |  |  | TAMRA EC1.5 (μM) [1, 7]: B (EC1.5 1-25 μM); Emax [1, 8]: < 350%; Trp EC1.5 (μM) [2, 9]: B (EC1.5 1-25 μM); Emax [2, 10]: < 350% |
| Cc1ncccc1NC(=O)c1cnn2ccc(-c3ccccc3C(F)(F)F)nc12 [Compound 630] | B (EC1.5 1-25 μM) | < 350% | A (EC1.5<1 μM) | ≥ 350% |  |
| O=C(Nc1ccccn1)c1cnc2ccc(-c3cccc(F)c3Cl)nn12 [Compound 182] |  |  |  |  | TAMRA EC1.5 (μM) [1, 7]: B (EC1.5 1-25 μM); Emax [1, 8]: < 350%; Trp EC1.5 (μM) [2, 9]: B (EC1.5 1-25 μM); Emax [2, 10]: < 350% |
| CC(C)c1nccc(C(=O)Nc2cnn3ccc(-c4ccccc4C(F)(F)F)nc23)n1 [Compound 796] | A (EC1.5<1 μM) | ≥ 350% | B (EC1.5 1-25 μM) | < 350% |  |
| COc1cccc(NC(=O)c2cnc3ccc(-c4ccccc4Cl)nn23)n1 [Compound 261] | A (EC1.5<1 μM) | < 350% | A (EC1.5<1 μM) | < 350% |  |
| O=C(Nc1ccnc(N2CCC2)c1)c1cnc2ccc(-c3cccc(Cl)c3F)nn12 [Compound 159] |  |  |  |  | TAMRA EC1.5 (μM) [1, 7]: A (EC1.5<1 μM); Emax [1, 8]: < 350%; Trp EC1.5 (μM) [2, 9]: B (EC1.5 1-25 μM); Emax [2, 10]: < 350% |
| Cc1cccnc1NC(=O)c1c(C)nn2ccc(-c3ccccc3C(F)(F)F)nc12 [Compound 722, 2-methyl-N-(3-methylpyridin-2-yl)-5-(2-(trifluoromethyl)phenyl)pyrazolo[1,5-a]pyrimidine-3-carboxamide] | B (EC1.5 1-25 μM) | < 350% | A (EC1.5<1 μM) | ≥ 350% |  |
| CN(C)[C@@H]1CCN(c2ccc3ncc(C(=O)Nc4cccc(N5CCOCC5)n4)n3n2)C1 [Compound 511] |  |  |  |  | TAMRA EC1.5 [1, 3]: B (EC1.5 1-25 μM); Emax [1, 4]: < 350%; Trp EC1.5 [2, 5]: B (EC1.5 1-25 μM); Emax [2, 6]: < 350% |
| O=C(Nc1cnn2ccc(-c3ccccc3C(F)(F)F)nc12)c1cscn1 [Compound 802] | B (EC1.5 1-25 μM) | ≥ 350% | C (EC1.5>25 μM) | < 350% |  |
| O=C(Nc1ccc(CN2CCCC2)cn1)c1cnc2ccc(-c3ccccc3C(F)(F)F)nn12 [Compound 248] | B (EC1.5 1-25 μM) | ≥ 350% | B (EC1.5 1-25 μM) | < 350% |  |
| Cc1cc(NC(=O)c2cnc3ccc(-c4ccccc4OC(F)(F)F)nn23)cc(C)n1 [Compound 419] |  |  |  |  | TAMRA EC1.5 [1, 3]: A (EC1.5<1 μM); Emax [1, 4]: ≥ 350%; Trp EC1.5 [2, 5]: A (EC1.5<1 μM); Emax [2, 6]: ≥ 350% |
| Cc1cc(NC(=O)c2cnc3ccc(-c4ccccc4OC(F)(F)F)nn23)nc(C)n1 [Compound 398] |  |  |  |  | TAMRA EC1.5 [1, 3]: A (EC1.5<1 μM); Emax [1, 4]: ≥ 350%; Trp EC1.5 [2, 5]: B (EC1.5 1-25 μM); Emax [2, 6]: < 350% |
| Cc1ccc(NC(=O)c2c(C)nc3ccc(-c4ccccc4C)nn23)nn1 [Compound 694] | B (EC1.5 1-25 μM) | ≥ 350% | B (EC1.5 1-25 μM) | < 350% |  |
| Cc1ccnc(NC(=O)c2cnn3ccc(-c4ccccc4OC(F)(F)F)nc23)c1 [Compound 604] | A (EC1.5<1 μM) | ≥ 350% | B (EC1.5 1-25 μM) | < 350% |  |
| Cc1nn2ccc(-c3ccccc3C(F)(F)F)nc2c1C(=O)Nc1cccc(N2CCOCC2)n1 [Compound 552] |  |  |  |  | TAMRA EC1.5 [1, 3]: A (EC1.5<1 μM); Emax [1, 4]: ≥ 350%; Trp EC1.5 [2, 5]: A (EC1.5<1 μM); Emax [2, 6]: ≥ 350% |
| Cc1cc(C)nc(NC(=O)c2cnc3ccc(N4CC[C@@H](N(C)C)C4)nn23)c1 [Compound 513] |  |  |  |  | TAMRA EC1.5 [1, 3]: B (EC1.5 1-25 μM); Emax [1, 4]: < 350%; Trp EC1.5 [2, 5]: C (EC1.5>25 μM); Emax [2, 6]: < 350% |
| Cc1cc(-c2ccccc2C(F)(F)F)nn2c(C(=O)Nc3cccc(N4CCOCC4)n3)cnc12 [Compound 192] |  |  |  |  | TAMRA EC1.5 (μM) [1, 7]: A (EC1.5<1 μM); Emax [1, 8]: ≥ 350%; Trp EC1.5 (μM) [2, 9]: A (EC1.5<1 μM); Emax [2, 10]: ≥ 350% |
| O=C(Nc1ccncc1)c1cnc2ccc(-c3ccc(F)c(F)c3F)nn12 [Compound 128] |  |  |  |  | TAMRA EC1.5 (μM) [1, 7]: C (EC1.5>25 μM); Emax [1, 8]: < 350%; Trp EC1.5 (μM) [2, 9]: C (EC1.5>25 μM); Emax [2, 10]: < 350% |
| N#Cc1ccccc1-c1ccc2ncc(NC(=O)c3cccc(N4CCC4)n3)n2n1 [Compound 338] | A (EC1.5<1 μM) | ≥ 350% | A (EC1.5<1 μM) | < 350% |  |
| O=C(Nc1cnc2ccc(-c3ccccc3OC(F)(F)F)nn12)c1cccc(N2CCOCC2)n1 [Compound 321] | A (EC1.5<1 μM) | ≥ 350% | A (EC1.5<1 μM) | ≥ 350% |  |
| O=C(Nc1ccc(F)cn1)c1cnc2ccc(-c3ccccc3OC(F)(F)F)nn12 [Compound 360] | B (EC1.5 1-25 μM) | < 350% | A (EC1.5<1 μM) | < 350% |  |
| O=C(Nc1ccccn1)c1cnc2ccc(-c3ccccc3C(F)F)nn12 [Compound 32] |  |  |  |  | TAMRA EC1.5 (μM) [1, 7]: B (EC1.5 1-25 μM); Emax [1, 8]: < 350%; Trp EC1.5 (μM) [2, 9]: B (EC1.5 1-25 μM); Emax [2, 10]: < 350% |
| Cc1ccnc(C(=O)Nc2cnn3ccc(-c4ccccc4C(F)(F)F)nc23)c1 [Compound 523] |  |  |  |  | TAMRA EC1.5 [1, 3]: A (EC1.5<1 μM); Emax [1, 4]: ≥ 350%; Trp EC1.5 [2, 5]: C (EC1.5>25 μM); Emax [2, 6]: < 350% |
| O=C(Nc1cccc(CN2CCOCC2)n1)c1cnc2ccc(-c3cccc(C(F)(F)F)c3)nn12 [Compound 5] |  |  |  |  | TAMRA EC1.5 (μM) [1, 7]: A (EC1.5<1 μM); Emax [1, 8]: ≥ 350%; Trp EC1.5 (μM) [2, 9]: B (EC1.5 1-25 μM); Emax [2, 10]: < 350% |

The next lines start with results.

| TAMRA EC1.5 (μM) [1, 11] | Emax [1, 12] | Trp EC1.5 (μM) [2, 13] | Emax [2, 14] | SMILES | other results |
| --- | --- | --- | --- | --- | --- |
| A (EC1.5<1 μM) | ≥ 350% | B (EC1.5 1-25 μM) | < 350% | O=C(Nc1cnn2ccc(-c3ccccc3OC(F)(F)F)nc12)c1ncc(F)cc1F [Compound 755] |  |
| A (EC1.5<1 μM) | ≥ 350% | B (EC1.5 1-25 μM) | ≥ 350% | Cc1ccc(NC(=O)c2cnn3ccc(-c4ccccc4C(F)(F)F)nc23)nc1 [Compound 618] |  |
| B (EC1.5 1-25 μM) | < 350% | B (EC1.5 1-25 μM) | ≥ 350% | CCn1nccc1NC(=O)c1c(C)nc2ccc(-c3ccccc3C(F)(F)F)nn12 [Compound 674] |  |
| A (EC1.5<1 μM) | ≥ 350% | A (EC1.5<1 μM) | < 350% | COc1cc(NC(=O)c2c(C)nn3ccc(-c4ccccc4C(F)(F)F)nc23)ncn1 [Compound 778] |  |
| A (EC1.5<1 μM) | ≥ 350% | A (EC1.5<1 μM) | ≥ 350% | CCOc1cc(NC(=O)c2c(C)nn3ccc(-c4ccccc4C(F)(F)F)nc23)ccn1 [Compound 707] |  |
| A (EC1.5<1 μM) | ≥ 350% | A (EC1.5<1 μM) | ≥ 350% | Cc1nc2c(C)cc(-c3ccccc3C(F)(F)F)nn2c1C(=O)Nc1ccnc(C(C)C)n1 [Compound 730] |  |
| A (EC1.5<1 μM) | ≥ 350% | B (EC1.5 1-25 μM) | ≥ 350% | O=C(Nc1cnc2ccc(-c3ccccc3OC(F)(F)F)nn12)c1ncccn1 [Compound 315] |  |
| B (EC1.5 1-25 μM) | ≥ 350% | B (EC1.5 1-25 μM) | < 350% | O=C(Nc1ccncc1F)c1cnc2ccc(-c3ccccc3OC[C@H](O)CO)nn12 [Compound 831] |  |
